Assay results as given in article PMC5679103 (Journal of natural products, 2017).

How the values were obtained:
P. falciparum Dd2 strain = assay: Antiplasmodial 72 h growth assay; format: cell-based, Plasmodium falciparum; conditions: relative to trichospirolide B (2)
Stability on storage = format: physicochemical; conditions: storage at −23 °C

With `C=C(C)C(=O)O[C@H]1C/C(C)=C\C(=O)/C=C(C)/C=C2/OC(=O)C(COC(C)=O)=C21` [Compound 1, 1(10)Z,3E,5E,7(12)Z-(8S)-13-acetoxy-8-methacryloyloxy-2-oxogermacra-1,3,5,7-tetraen-6,12-olide] the “Fold higher antiplasmodial potency than trichospirolide B” value (P. falciparum Dd2 strain) was 25 fold.

In the case of `C=C(C)C(=O)O[C@H]1C/C(C)=C\C(=O)C[C@@]2(C)O[C@H]2[C@H]2OC(=O)C(COC(C)=O)=C12` [Compound 3, 1(10)Z,7(11)Z-(4R,5S,6S,8S)-13-acetoxy-4,5-epoxy-8-methacryloyloxy-2-oxogermacra-1,7-dien-6,12-olide], the “Fold higher antiplasmodial potency than trichospirolide B” value (P. falciparum Dd2 strain) is reported as 3 fold.

In the case of `C=C(C)C(=O)O[C@@H]1C/C(C)=C\[C@@]2(O)C=C(C)[C@H](O2)[C@H]2OC(=O)C(COC(C)=O)=C12` [Compound 4, 1(10)Z,3Z,7(11)Z-(2S,5S,6S,8R)-13-acetoxy-2,5-epoxy-2-hydroxy-8-O-methacryloyloxygermacra-1(10),3,7(11)-trien-6,12-olide], the Stability on storage (Stability on storage) is reported as “moderately unstable”.
